# Read-outs that look alike come from different tables or passages of the source.
# Assays:
# [1] = system: CD3+CD4+α4β7+ T lymphocytes; experiment: FACS analysis of T lymphocyte populations, 8-day DSS study; type: in vivo, C57Bl/6 mice
# Description: Collection of samples. On Day 8, five hours after ET02451-01, ET02452-01 and vehicle dosing, the animals were euthanized by cardiac puncture under general anesthesia, according to the “Guide to the Care and Use of Experimental Animals” published by the CCAC. Blood was transferred in a Sarstedt tube containing EDTA. Mesenteric and peripheral (inguinal, auxiliary and brachial) lymph nodes were collected and transferred on ice in corresponding tubes containing cold PBS. Nodes were kept on ice until tissue preparation.
# Cell population labeling. Blood was withdrawn by cardiac puncture and collected on EDTA-coated tubes. Mensenteric lymph nodes (MLN) and peripheral lymph nodes (PLN) were also collected. Mononuclear cells from the tissues will be isolated using density gradient (Lympholyte) and they were stained with fluorescent antibodies. […] After washes, cells were fixed using BD Fix Solution. Percentage of different subpopulations of T lymphocytes were then analysed using FACSCalibur cytometer. Antibodies employed were the same as listed for the single-dose PD studies above.
# [2] = mouse, in vivo
# Description: (§1) Oral bioavailability of test compounds was conducted by assessing plasma exposure of following one or two oral doses in mice and, in some cases, comparing said plasma exposure with that following a single intravenous dose of the same compound.
# (§2) Body weights were recorded on the day of dosing.
# (§3) Dosing: The formulation containing the test compound were administered p.o. by gavage with disposable feeding needles.
# (§4) Sample processing/storage: All blood samples were transferred into K2EDTA tubes on wet ice and centrifuged within 5 min (3200×g for 5 min at 4° C.) to obtain plasma. Samples were stored frozen at −80° C. until bioanalysis.
# (§5) Instrumentation: AB Sciex API 4000 Q-TRAP MS/MS system equipped with an Agilent LC system with a binary pump, a solvent degasser, a thermostatted column compartment, a CTC autosampler and a divert valve installed between the column and mass spectrometer inlet.
# [3] = system: DSS-treated mice; experiment: 8-day efficacy study in DSS model (therapeutic) of ulcerative colitis; type: in vivo, C57Bl/6 mice; conditions: for reduction of DAI score: Day 8 vs DSS+vehicle; for reduction of lesion length: vs control vehicle treated-group
# Description: Animals. Female C57Bl/6 mice (Charles River, St-Constant, Qc), weighting 16-19 g at delivery were used for this study. Following arrival in the animal facility, all animals were subjected to a general health evaluation. An acclimation period of 7-14 days was allowed before the beginning of the study.
# Oral dosing of the test article and the vehicle. From Day 5 to Day 8, nacellins and the vehicle were administered as a single slow bolus (over approximately 5 seconds) via oral route (p.o.), according to the procedure of administration of solution by gavage: the animal was firmly restrained. A bulb-tipped gastric gavage needle of 22G was passed through the side of the mouth and was advanced towards the oesophagus. The test articles and the vehicle were dosed orally at 5 mL/kg.
# Intraperitoneal dosing of the test articles and the vehicle. On day 5, DATK32 antibody was administered in only on Day 5, as a single slow bolus (over approximately 5 seconds) via the i.p. route. […] Intraperitoneal administration was performed accordingly to the following procedure: the mouse was restrained manually and held with the head and body tilted downward. The tip of the needle (27 G) was inserted through the skin and just past the abdominal wall. A short pull back of the plunger of the syringe was done prior to administration of the solution to make sure that the syringe was not inserted in any abdominal organ (fluid would be pulled back into the syringe in this case).
# Inflammation Score. Once the mouse was euthanized, the colon was collected and its length was measured. Lesion length was also measured. Colon inflammation was scored based on severity of oedema and ulceration.
# Disease Activity Index (DAI) assessment. Body weight and DAI were measured on Day 5 in order to distribute DSS-treated animals in two uniform groups prior dosing. Specific symptoms associated to UC were scored based on the severity of each particular symptoms: 1—blood in stool (negative hemoccult, positive hemoccult, blood traces in stool visible, rectal bleeding); 2—stool consistency (normal, soft but still formed, very soft, diarrhea); 3—posture and fur (normal; ruffled fur; ruffled fur combined to slight hunched posture and slight dehydration; ruffled fur combined to hunched posture, dehydration and altered walking; moribund (euthanasia is mandatory before the animal reach this point). The overall DAI score was the sum of the three parameters (maximum score 9). Body weight measurement and DAI assessment were performed also on Day 8 to evaluate the effect of the treatments.
# [4] = In vivo pharmacokinetic assessment, plasma; conditions: naïve mice
# Description: as §1, §2, §3, §4, §5
# [5] = In vivo pharmacokinetic assessment, liver; design: species or system CD-1 mice
# Description: In Vivo Pharmacokinetic Assessments in Rodents
# The livers will be blotted and weighed.
# [6] = In vivo pharmacokinetic assessment, colon; design: species or system CD-1 mice; conditions: for tmax: colon, naïve mice
smiles,measurement,setting,value
CC(C)C[C@@H]1NC(=O)c2ccc(-c3ccnc4ccccc34)c(c2)CNC(=O)[C@@H]2CCCN2[C@H](C(=O)NC(C)(C)C)[C@H](C)NC(=O)[C@H]([C@@H](C)O)NC(=O)[C@H](CC(=O)O)NC1=O [ET02452],CD3+CD4+α4β7+ cell population in mesenteric lymph nodes,"[1]; i.p.: ET02452 65 mg/kg, DATK32 15 mg/kg",significant decrease
same,oral bioavailability / absorption (in words),[2]; po,low oral bioavailability
same,reduction of DAI score,"[3]; i.p.: ET02452-01 65 mg/kg Day 5-8, DATK32 15 mg/kg Day 5",46%
same,reduction of lesion length,"[3]; i.p.: ET02452-01 65 mg/kg, DATK32 15 mg/kg Day 5",20%
same,reduction of DAI score,"[3]; oral 40 mg/kg, Day 5 to Day 8",did not have any beneficial effect
same,reduction of lesion length,[3]; oral 40 mg/kg,53%
CC(C)C[C@@H]1NC(=O)c2ccc(-c3ccc(N4CCNCC4)cc3)c(c2)CNC(=O)[C@@H]2CCCN2[C@H](C(=O)NC(C)(C)C)[C@H](C)NC(=O)[C@H]([C@@H](C)O)NC(=O)[C@H](CC(=O)O)NC1=O [ET02451],CD3+CD4+α4β7+ cell population in mesenteric lymph nodes,[1]; p.o. 40 mg/kg,significant decrease
same,AUC0-tiast,[4]; single i.v. 5 mg/kg,778 ng·h/mL
same,tmax,[4]; single i.v. 5 mg/kg,4.98 min
same,Cmax,[4]; single p.o. 40 mg/kg,4638 ng/mL
same,tmax,"[5]; liver, single i.v. 5 mg/kg, naïve mice",0.0833 h
same,bioavailability in the liver,"[5]; mouse, in vivo",~8%
same,main route of elimination,"[5]; mouse, in vivo",hepatobiliary clearance
same,AUC0-inf,"[5]; mouse, in vivo, iv, 5 mg/kg",8460 ng·h/mL
same,AUC0-tlast,"[5]; mouse, in vivo, iv, 5 mg/kg",8289 ng·h/mL
same,MRT0-inf,"[5]; mouse, in vivo, iv, 5 mg/kg",2.00 h
same,half-life in liver,"[5]; mouse, in vivo, po",~8 h
same,AUC0-inf,"[5]; mouse, in vivo, po, 40 mg/kg",6054 ng·h/mL
same,AUC0-tlast,"[5]; mouse, in vivo, po, 40 mg/kg",6024 ng·h/mL
same,MRT0-inf,"[5]; mouse, in vivo, po, 40 mg/kg",2.11 h
same,tmax,"[5]; mouse, in vivo, po, 40 mg/kg",2.00 h
same,F,"[2]; iv, 5 mg/kg",100%
same,elimination half-life in plasma,[2]; po,~0.5 h
same,oral bioavailability / absorption (in words),[2]; po,significant absorption from the gut and systemic exposure following oral dosing
same,AUC0-tiast,"[2]; po, 40 mg/kg",686 ng·h/mL
same,F,"[2]; po, 40 mg/kg",11.0%
same,reduction of DAI score,"[3]; oral 40 mg/kg, Day 5 to Day 8",15%
same,lesion/colon length,"[3]; oral 40 mg/kg, vehicle group 40%",12%
same,reduction of lesion length,[3]; oral 40 mg/kg,significantly reduced the lesion length
same,tmax,[6]; single i.v. 5 mg/kg,2.00 h
same,tmax,[6]; single p.o. 40 mg/kg,2.00 h
same,oral bioavailability in colon,"[6]; mouse, in vivo",~100%
same,AUC0-inf,"[6]; mouse, in vivo, iv, 5 mg/kg",17140 ng·h/mL
same,AUC0-tlast,"[6]; mouse, in vivo, iv, 5 mg/kg",17109 ng·h/mL
same,MRT0-inf,"[6]; mouse, in vivo, iv, 5 mg/kg",3.43 h
same,half-life in colon,"[6]; mouse, in vivo, po",greater than 21 hours
same,AUC0-inf,"[6]; mouse, in vivo, po, 40 mg/kg",145327 ng·h/mL
same,AUC0-tlast,"[6]; mouse, in vivo, po, 40 mg/kg",130746 ng·h/mL
same,MRT0-inf,"[6]; mouse, in vivo, po, 40 mg/kg",4.59 h
